Data set [1] can be described thus: Stability against DHP-I, porcine. Conditions: pig, renal dehydropeptidase i, pH 7, 100 μg (titer)/ml, 37° C., HPLC, read-out: residual amount after 3 hours. In kind it is in vitro ADME. The procedure: (§1) The stabilities of the compounds according to the present invention against porcine and mouse renal dehydropeptidases were measured by the following method.
(§2) Kidney acetone powder, Porcine Type II(Sigma; Lot. 33H7225; 1.5 g) was suspended in a 50 mM Tris.HCl buffer (pH 7.0) containing 20% butanol, and the mixture was stirred at 5° C. for 48 hours. Dialysis (Cellulose tube 30/32; Viskase Sales Corp) was conducted with a 50 mM Tris.HCl buffer (pH 7.0) in order to remove butanol to a level of no smell of butanol. The dialysate was centrifuged at 10000×g (KUBOTA 6800) for 20 minutes to give a supernatant as a partly purified DHP-I, which was divided into portions and stored at -80° C. Also, a partly purified DHP-I was prepared from 1.5 g of Mouse (Lot. 23F8105), and stored in the same manner as above.
(§3) The compounds according to the present invention as a basic pharmaceutical was diluted with sterile purified water to prepare a solution having a titer of 2000 μg/ml. The solution of the compound according to the present invention having a titer of 2000 μg/ml was added to the partly purified DHP-I's of the above described animals so as to have a final concentration of 100 μg (titer)/ml. As a blank, 50 mM Tris.HCl buffer (pH 7.0) was used in place of the partly purified DHP-I's of the animals. After reaction at 37° C. for 3 hours, a portion of the reaction mixture was taken out, diluted with the same amount of methanol to stop the reaction by cooling in ice. The reaction mixture was filtered through SUNPLEP LCR13-LH, MILLIPORE), and subjected to HPLC (column: CAPCELL PACK C18 SG120, SHISEIDO; UV detector; mobile phase: acetonitrile--10 mM aqueous acetic acid solution) to measure the residual amount (%) of […] according to the following equation. [formula]

A short description of data set [2]: Stability against DHP-I, mouse. In kind it is in vitro ADME. Conditions: renal dehydropeptidase i, pH 7, 100 μg (titer)/ml, 37° C., HPLC, read-out: residual amount after 3 hours. On the procedure:
as §1, §2, §3

Data set [3] has as its system S. pneumoniae PRC9 (penicillin-hyper resistant strain, PRSP). The data set can be described thus: Anti-microbial activities (MIC). The format is cell-based. Conditions: Streptococcus pneumoniae, Sensitivity Disk agar-N+5% Horse blood, 10^6 CFU/ml, read-out: minimum inhibiting concentration (MIC). On the procedure:
(§4) The minimum inhibiting concentrations (MIC, […]) of the compounds according to the present invention to various pathogenic bacteria was measured in accordance with the method described in CHEMOTHERAPY, vol. 16, No. 1, 99, 1968. The culture medium for measurement was Sensitivity Disk agar-N+5% Horse blood, and the amount of inoculants was 10^6 CFU/ml.
**: penicillin-hyper resistant strain (PRSP);

In data set [4] the test system is S. aureus M126 (methicillin-hyper resistant strain, MRSA). Put plainly: Anti-microbial activities (MIC). The format is cell-based. To be noted: Staphylococcus aureus, Sensitivity Disk agar-N+5% Horse blood, 10^6 CFU/ml, read-out: minimum inhibiting concentration (MIC). On the procedure:
as §4
*: methicillin-hyper resistant strain (MRSA);

In the next data set the test system is B. catarrhalis W-0506. The data set can be described thus: Anti-microbial activities (MIC). The format is cell-based. To be noted: Moraxella catarrhalis, W0506, Sensitivity Disk agar-N+5% Horse blood, 10^6 CFU/ml, read-out: minimum inhibiting concentration (MIC). On the procedure: as §4
The subject of a further data set is E. coli NIHJ JC-2. The data set can be described thus: Anti-microbial activities (MIC). In kind it is cell-based. To be noted: Escherichia coli, NIHJJC2, Sensitivity Disk agar-N+5% Horse blood, 10^6 CFU/ml, read-out: minimum inhibiting concentration (MIC). On the procedure: as §4
The next data set deals with H. influenzae PRC2. The data set can be described thus: Anti-microbial activities (MIC). In kind it is cell-based. To be noted: Haemophilus influenzae, Sensitivity Disk agar-N+5% Horse blood, 10^6 CFU/ml, read-out: minimum inhibiting concentration (MIC). On the procedure:
as §4

The test system of another data set is H. influenzae PRC44. The data set can be described thus: Anti-microbial activities (MIC). In kind it is cell-based. To be noted: Haemophilus influenzae, Sensitivity Disk agar-N+5% Horse blood, 10^6 CFU/ml, read-out: minimum inhibiting concentration (MIC). On the procedure: as §4
Another data set concerns S. aureus 209P JC-1. The data set can be described thus: Anti-microbial activities (MIC). The format is cell-based. Conditions: Staphylococcus aureus, Sensitivity Disk agar-N+5% Horse blood, 10^6 CFU/ml, read-out: minimum inhibiting concentration (MIC). On the procedure: as §4
Another data set deals with S. epidermidis ATCC14990. Put plainly: Anti-microbial activities (MIC). The format is cell-based. To be noted: Staphylococcus epidermidis, Sensitivity Disk agar-N+5% Horse blood, 10^6 CFU/ml, read-out: minimum inhibiting concentration (MIC). On the procedure: as §4
The next data set has as its system P. vulgaris GN7919. Put plainly: Anti-microbial activities (MIC). The format is cell-based. Conditions: Proteus vulgaris, Sensitivity Disk agar-N+5% Horse blood, 10^6 CFU/ml, read-out: minimum inhibiting concentration (MIC). On the procedure: as §4
In a further data set the test system is K. pneumoniae PCI602. Put plainly: Anti-microbial activities (MIC). In kind it is cell-based. Conditions: Klebsiella pneumoniae, Sensitivity Disk agar-N+5% Horse blood, 10^6 CFU/ml, read-out: minimum inhibiting concentration (MIC). The procedure: as §4
Another data set deals with E. hirae ATCC8043. The data set can be described thus: Anti-microbial activities (MIC). The format is cell-based. To be noted: Enterococcus hirae, Sensitivity Disk agar-N+5% Horse blood, 10^6 CFU/ml, read-out: minimum inhibiting concentration (MIC). On the procedure: as §4
A further data set concerns E. faecalis W-73. The data set can be described thus: Anti-microbial activities (MIC). The format is cell-based. Conditions: Enterococcus faecalis, W73, Sensitivity Disk agar-N+5% Horse blood, 10^6 CFU/ml, read-out: minimum inhibiting concentration (MIC). On the procedure: as §4
The test system of the next data set is C. freundii GN346. The data set can be described thus: Anti-microbial activities (MIC). The format is cell-based. To be noted: Citrobacter freundii, Sensitivity Disk agar-N+5% Horse blood, 10^6 CFU/ml, read-out: minimum inhibiting concentration (MIC). The procedure: as §4
A further data set in a line: Acute toxicity test. Conditions: intravenous, 2000 mg/kg, mice, n=3. The format is in vivo, mice (ICR, male). On the procedure:
The compound of Example 1 was administered intravenously to mice (ICR, male, n =3) in an amount of 2000 mg/kg.

≈ marks a conversion by molar mass, not a printed value. Where a name gives a salt, the structure may show the parent alone.

Consider `C[C@@H](O)[C@H]1C(=O)N2C(C(=O)O)=C(S[C@@H]3CN[C@H](C(=O)N(C)C)C3)[C@H](C)[C@H]12` [C, meropenem, reference compound], for which the remaining at 3 h in [1] came to 72%; in data set [2], 18%.

For the molecule `C[C@@H](O)[C@H]1C(=O)N2C(C(=O)O)=C(SCCN=CN)C[C@H]12` [Compound A, imipenem, reference compound], the remaining at 3 h in data set [1] was found to be 0.6%; in [2], 24%. Also, the MIC in data set [3] was 0.2 µg/mL (≈ 0.668 µM); in data set [4], 25 µg/mL (≈ 83.5 µM); in the data set on B. catarrhalis W-0506, below 0.025 µg/mL; in the data set with E. coli NIHJ JC-2, 0.1 µg/mL (≈ 0.334 µM); in the data set on H. influenzae PRC2, 0.78 µg/mL (≈ 2.61 µM); with H. influenzae PRC44, 12.5 µg/mL (≈ 41.8 µM). Besides, the MIC with S. aureus 209P JC-1 was below 0.025 µg/mL; in the data set on S. epidermidis ATCC14990, below 0.025 µg/mL; with P. vulgaris GN7919, 0.1 µg/mL (≈ 0.334 µM); in the data set with K. pneumoniae PCI602 it was 0.2 µg/mL (≈ 0.668 µM); in the data set on E. hirae ATCC8043, 0.78 µg/mL (≈ 2.61 µM); with E. faecalis W-73 it was 0.78 µg/mL (≈ 2.61 µM). Also, the MIC in the data set with C. freundii GN346 was determined as 0.2 µg/mL (≈ 0.668 µM).

Consider `C[C@@H](O)[C@H]1C(=O)N2C(C(=O)O)=C(S[C@@H]3CN[C@H](Cc4cn5c[n+](C)cc5s4)C3)[C@H](C)[C@H]12` [Compound B, (1R,5S,6S)-6-((1R)-1-hydroxyethyl)-1-methyl-2-[(3S,5S)-5-(6-methylimidazo[5,1-b]thiazolium-2-yl)methylpyrrolidin-3-yl]thiocarbapen-2-em-3-carboxylic acid iodide, reference compound], for which the MIC in data set [3] is 0.39 µg/mL; in data set [4], 6.25 µg/mL; in the data set with B. catarrhalis W-0506 it was below 0.025 µg/mL; in the data set with E. coli NIHJ JC-2, 0.05 µg/mL; in the data set on H. influenzae PRC2, 0.1 µg/mL; in the data set with H. influenzae PRC44, 0.78 µg/mL. Also, the MIC in the data set with S. aureus 209P JC-1 was below 0.025 µg/mL; in the data set with S. epidermidis ATCC14990, 0.05 µg/mL; with P. vulgaris GN7919 it was 0.1 µg/mL; with K. pneumoniae PCI602, 0.1 µg/mL; in the data set with E. hirae ATCC8043 it was 1.56 µg/mL; in the data set with E. faecalis W-73 it was 3.13 µg/mL. Moreover, the MIC in the data set on C. freundii GN346 is 0.1 µg/mL.

Consider `C[C@@H](O)[C@H]1C(=O)N2C(C(=O)O)=C(c3cn4cncc4s3)[C@H](C)[C@H]12` [Example 1, (1S,5R,6S)-6-((1R)-1-hydroxyethyl)-2-(imidazo[5,1-b]thiazol-2-yl)-1-methyl-1-carbapen-2-em-3-carboxylic Acid], for which the “survival (acute toxicity)” value in the data set “Acute toxicity test” is “all of the animals were survived”. Also, the remaining at 3 h was 87% in [1] and below 2.9% in [2]. Besides, the MIC in data set [3] was 0.1 µg/mL (≈ 0.3 µM); in data set [4] it was 3.13 µg/mL (≈ 9.39 µM); with B. catarrhalis W-0506, below 0.025 µg/mL; in the data set on E. coli NIHJ JC-2 it was 0.1 µg/mL (≈ 0.3 µM); in the data set on H. influenzae PRC2, below 0.025 µg/mL; with H. influenzae PRC44, 0.39 µg/mL (≈ 1.17 µM). Further, the MIC in the data set with S. aureus 209P JC-1 is below 0.025 µg/mL; with S. epidermidis ATCC14990, below 0.025 µg/mL; in the data set with P. vulgaris GN7919, 0.05 µg/mL (≈ 0.15 µM); in the data set with K. pneumoniae PCI602 it was 0.1 µg/mL (≈ 0.3 µM); with E. hirae ATCC8043, 0.39 µg/mL (≈ 1.17 µM); in the data set with E. faecalis W-73, 0.2 µg/mL (≈ 0.6 µM). Further, the MIC in the data set with C. freundii GN346 came out at 1.56 µg/mL (≈ 4.68 µM).

For the molecule `C[C@@H](O)[C@H]1C(=O)N2C(C(=O)[O-])=C(c3cn4c[n+](C)cc4s3)[C@H](C)[C@H]12` [Example 4, (1S,5R,6S)-6-((1R)-1-hydroxyethyl)-1-methyl-2-(6-methylimidazo[5,1-b]thiazolium-2-yl)-1-carbapen-2-em-3-carboxylate (inner salt)], the figures for the remaining at 3 h in [1] and in data set [2] were 100% and 94%, respectively. Moreover, the MIC was 0.05 µg/mL in data set [3]; 3.13 µg/mL in data set [4]; below 0.025 µg/mL with B. catarrhalis W-0506; below 0.025 µg/mL in the data set with E. coli NIHJ JC-2; 0.05 µg/mL in the data set with H. influenzae PRC2; 0.39 µg/mL with H. influenzae PRC44. The MIC was below 0.025 µg/mL in the data set with S. aureus 209P JC-1; below 0.025 µg/mL with S. epidermidis ATCC14990; 0.1 µg/mL with P. vulgaris GN7919; 0.05 µg/mL in the data set on K. pneumoniae PCI602; 0.78 µg/mL in the data set with E. hirae ATCC8043; 0.1 µg/mL with E. faecalis W-73. For the same molecule, the MIC in the data set with C. freundii GN346 came to 0.1 µg/mL.

Take `C[C@@H](O)[C@H]1C(=O)N2C(C(=O)O)=C(c3cn4cncc4s3)C[C@H]12` [Example 8, (5R,6S)-6-((1R)-1-hydroxyethyl)-2-(imidazo[5,1-b]thiazol-2-yl)-1-carbapen-2-em-3-carboxylic Acid]: the values for the remaining at 3 h in data set [1] and in data set [2] were 60% and below 0.2%, respectively. Moreover, the MIC in data set [3] was 0.2 µg/mL (≈ 0.626 µM); in data set [4] it was 6.25 µg/mL (≈ 19.6 µM); in the data set with B. catarrhalis W-0506, below 0.025 µg/mL; in the data set with E. coli NIHJ JC-2 it was 0.1 µg/mL (≈ 0.313 µM); in the data set with H. influenzae PRC2 it was 0.05 µg/mL (≈ 0.157 µM); in the data set on H. influenzae PRC44, 0.78 µg/mL (≈ 2.44 µM). Also, the MIC is below 0.025 µg/mL in the data set with S. aureus 209P JC-1; 0.05 µg/mL (≈ 0.157 µM) in the data set with S. epidermidis ATCC14990; 0.1 µg/mL (≈ 0.313 µM) with P. vulgaris GN7919; 0.05 µg/mL (≈ 0.157 µM) in the data set on K. pneumoniae PCI602; 0.78 µg/mL (≈ 2.44 µM) in the data set on E. hirae ATCC8043; 0.39 µg/mL (≈ 1.22 µM) in the data set on E. faecalis W-73. In addition, in the data set on C. freundii GN346, the MIC amounted to 0.2 µg/mL (≈ 0.626 µM).
